≈ marks a conversion by molar mass, not a printed value.
How the values were obtained:
[1] = tested on: T1, UDP-3-O-acyl-N-acetylglucosamine deacetylase (Pseudomonas aeruginosa (strain ATCC 15692 / PAO1 / 1C / PRS 101 / LMG12228)), P47205 [C40S]
T1 sequence (whole entry): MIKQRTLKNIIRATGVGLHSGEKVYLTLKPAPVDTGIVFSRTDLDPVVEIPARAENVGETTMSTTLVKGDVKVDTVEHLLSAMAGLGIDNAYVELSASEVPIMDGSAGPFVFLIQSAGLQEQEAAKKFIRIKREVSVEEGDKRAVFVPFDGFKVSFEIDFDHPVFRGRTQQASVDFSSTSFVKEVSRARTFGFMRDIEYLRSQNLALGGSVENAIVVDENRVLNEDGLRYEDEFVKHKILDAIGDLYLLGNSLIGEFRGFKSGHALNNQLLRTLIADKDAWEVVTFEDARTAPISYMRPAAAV

[2] = physchem; conditions: DMSO, pH 9
Description: Solubility of the compound in DMSO at pH 9 incubated for 24 hrs by LC-UV method

[3] = physchem; conditions: DMSO, pH 7
Description: Solubility of the compound in DMSO at pH 7 incubated for 24 hrs by LC-UV method

[4] = tested on: Pseudomonas aeruginosa; experiment: microbe, parasite or virus in culture; conditions: ATCC 27853
Description: Antimicrobial activity against Pseudomonas aeruginosa ATCC 27853 by broth microdilution method

[5] = tested on: Escherichia coli; experiment: microbe, parasite or virus in culture; conditions: ATCC 25922
Description: Antibacterial activity against wild-type Escherichia coli ATCC 25922 by broth microdilution method

[6] = tested on: Klebsiella pneumoniae; experiment: microbe, parasite or virus in culture; conditions: T 6474
Description: Antibacterial activity against multi-drug resistant Klebsiella pneumoniae T 6474 by broth microdilution method

[7] = physchem; conditions: DMSO, pH 4
Description: Solubility of the compound in DMSO at pH 4 incubated for 24 hrs by LC-UV method

[8] = physchem; conditions: n-octanol/phosphate buffered saline, pH 7.4
Description: n-Octanol/phosphate buffered saline partition coefficient, log D of the compound at pH 7.4 by LC-UV method

[9] = tested on: T2, UDP-3-O-acyl-N-acetylglucosamine deacetylase (Escherichia coli K-12), P0A725 [C125S]
T2 sequence (whole entry): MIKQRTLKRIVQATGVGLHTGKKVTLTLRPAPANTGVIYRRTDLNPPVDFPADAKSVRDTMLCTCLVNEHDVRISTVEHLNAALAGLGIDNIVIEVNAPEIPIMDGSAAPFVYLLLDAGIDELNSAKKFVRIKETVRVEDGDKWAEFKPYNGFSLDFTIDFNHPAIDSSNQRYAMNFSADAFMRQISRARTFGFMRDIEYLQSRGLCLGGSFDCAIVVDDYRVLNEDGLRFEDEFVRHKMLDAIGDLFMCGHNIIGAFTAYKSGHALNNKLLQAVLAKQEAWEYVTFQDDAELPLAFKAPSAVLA

[10] = tested on: Pseudomonas aeruginosa; experiment: microbe, parasite or virus in culture; conditions: PAO1
Description: Antimicrobial activity against wild-type Pseudomonas aeruginosa PAO1 by broth microdilution method

Compound | ΔTm [1] [°C] | solubility at 24 h [2] [µg/mL] | solubility at 24 h [3] [µg/mL] | MIC [4] [µg/mL] | MIC [5] [µg/mL] | MIC [6] [µg/mL] | solubility at 24 h [7] [µg/mL] | logD [8] | ΔTm [9] [°C] | MIC [10] [µg/mL]
C[C@@](CCN1Cc2cc(C#Cc3ccc([C@H](O)CO)cc3)sc2C1=O)(C(=O)NO)S(C)(=O)=O | 14.3 | 814 (≈ 1650 µM) | 300 (≈ 609 µM) | 1 (≈ 2.03 µM) | 0.5 (≈ 1.02 µM) | 1 (≈ 2.03 µM) | 230 (≈ 467 µM) | 0.8 | 12.1 | 2 (≈ 4.06 µM)
C[C@@](CCN1Cc2cc(C#CC#CC3(CO)CC3)sc2C1=O)(C(=O)NO)S(C)(=O)=O | 14.2 | > 760 | > 760 | 1 (≈ 2.22 µM) | 1 (≈ 2.22 µM) | 1 (≈ 2.22 µM) | 443 (≈ 983 µM) | 1.2 | 10.9 | 1 (≈ 2.22 µM)
C[C@@](CCN1Cc2cc(C#CC#C[C@@H]3C[C@H]3CO)sc2C1=O)(C(=O)NO)S(C)(=O)=O | 15 | 380 (≈ 843 µM) | 377 (≈ 837 µM) | 0.5 (≈ 1.11 µM) | 0.12 (≈ 0.266 µM) | 0.25 (≈ 0.555 µM) | 464 (≈ 1030 µM) | 1.3 | 11.2 | 0.5 (≈ 1.11 µM)
C[C@@](CCN1Cc2cc(C#CC#CCOC(=O)N3CCC(O)CC3)cn2C1=O)(C(=O)NO)S(C)(=O)=O | 12.9 | > 880 | 785 (≈ 1510 µM) | 2 (≈ 3.84 µM) | 0.5 (≈ 0.96 µM) | 1 (≈ 1.92 µM) | 641 (≈ 1230 µM) | 0.9 | 9.4 | 2 (≈ 3.84 µM)
C[C@@](CCN1Cc2cc(C#Cc3ccc(C4(CO)CC4)cc3)cn2C1=O)(C(=O)NO)S(C)(=O)=O | 13.6 | 56 (≈ 115 µM) | 7 (≈ 14.4 µM) | 0.5 (≈ 1.03 µM) | 0.12 (≈ 0.247 µM) | 0.25 (≈ 0.515 µM) | 5 (≈ 10.3 µM) | 2 | 11.8 | 0.5 (≈ 1.03 µM)
C[C@@](CCN1Cc2cc(C#CC#CC3(O)COC3)cn2C1=O)(C(=O)NO)S(C)(=O)=O | 11.3 | > 740 | > 740 | 2 (≈ 4.59 µM) | 1 (≈ 2.3 µM) | 2 (≈ 4.59 µM) | > 740 | 0.3 | 8.8 | 4 (≈ 9.19 µM)
C[C@@](CCN1Cc2cc(C#Cc3ccc(CNS(C)(=O)=O)cc3)cn2C1=O)(C(=O)NO)S(C)(=O)=O | 13.2 | 56 (≈ 107 µM) | 3 (≈ 5.74 µM) | 1 (≈ 1.91 µM) | 0.25 (≈ 0.478 µM) | 0.5 (≈ 0.957 µM) | 1 (≈ 1.91 µM) | 1 | 11.2 | 1 (≈ 1.91 µM)
C[C@@](CCN1Cc2cc(C#CC#C[C@H]3C[C@@H]3CO)sc2C1=O)(C(=O)NO)S(C)(=O)=O | 15 | > 760 | 603 (≈ 1340 µM) | 0.5 (≈ 1.11 µM) | 0.15 (≈ 0.333 µM) | 0.25 (≈ 0.555 µM) | 522 (≈ 1160 µM) | 1.3 | 12.2 | 0.5 (≈ 1.11 µM)
C[C@@](CCN1Cc2cc(C#Cc3ccc(CN4CCOCC4)cc3)sc2C1=O)(C(=O)NO)S(C)(=O)=O | 15.5 | 571 (≈ 1070 µM) | 155 (≈ 292 µM) | 1 (≈ 1.88 µM) | ≤ 0.06 | 0.12 (≈ 0.226 µM) | > 900 | 1.8 | 13 | 1 (≈ 1.88 µM)
C[C@@](CCN1Cc2cc(C#Cc3ccc(CN4CCOCC4)cc3)ccc2C1=O)(C(=O)NO)S(C)(=O)=O | 13.8 | > 890 | 148 (≈ 282 µM) | 2 (≈ 3.8 µM) | 0.12 (≈ 0.228 µM) | 0.5 (≈ 0.951 µM) | > 890 | 1.8 | 11 | 2 (≈ 3.8 µM)
CC(C)(O)c1ccc(C#Cc2cc3n(c2)C(=O)N(CC[C@](C)(C(=O)NO)S(C)(=O)=O)C3)cc1 | 13.7 | 556 (≈ 1170 µM) | 110 (≈ 232 µM) | 0.5 (≈ 1.06 µM) | 0.12 (≈ 0.253 µM) | 0.25 (≈ 0.528 µM) | 70 (≈ 148 µM) | 1.9 | 11.8 | 1 (≈ 2.11 µM)
CC(C)(O)C#CC#Cc1cc2c(s1)C(=O)N(CC[C@](C)(C(=O)NO)S(C)(=O)=O)C2 | 13.6 | > 740 | > 740 | 1 (≈ 2.28 µM) | 0.5 (≈ 1.14 µM) | 2 (≈ 4.56 µM) | > 740 | 1.2 | 9.9 | 2 (≈ 4.56 µM)
CC(C)(O)c1ccc(C#Cc2ccc3c(c2)CN(CC[C@](C)(C(=O)NO)S(C)(=O)=O)C3=O)cc1 | 12.8 | 136 (≈ 281 µM) | 7 (≈ 14.4 µM) | 4 (≈ 8.25 µM) | 0.25 (≈ 0.516 µM) | 0.5 (≈ 1.03 µM) | 4 (≈ 8.25 µM) | 2.3 | 9.5 | 8 (≈ 16.5 µM)
C[C@@](CCN1Cc2cc(C#Cc3ccc(C4(O)COC4)cc3)cn2C1=O)(C(=O)NO)S(C)(=O)=O | 13 | > 820 | > 820 | 0.5 (≈ 1.03 µM) | 0.12 (≈ 0.246 µM) | 0.5 (≈ 1.03 µM) | 195 (≈ 400 µM) | 1.2 | 10.8 | 1 (≈ 2.05 µM)
C[C@@](CCN1Cc2cc(C#CC#CC3(N)CC3)sc2C1=O)(C(=O)NO)S(C)(=O)=O.Cl | 12.5 | > 740 | 207 | 1 | 0.25 | 0.5 | > 740 | 1 | 10 | 1
CC(C)(O)C#CC#Cc1cc2n(c1)C(=O)N(CC[C@](C)(C(=O)NO)S(C)(=O)=O)C2 | 12.3 | > 710 | > 710 | 1 (≈ 2.37 µM) | 0.5 (≈ 1.19 µM) | 1 (≈ 2.37 µM) | 398 (≈ 944 µM) | 0.9 | 9.9 | 2 (≈ 4.75 µM)
CC(C)(O)c1ccc(C#Cc2cc3c(s2)C(=O)N(CC[C@](C)(C(=O)NO)S(C)(=O)=O)C3)cc1 | 15.5 | 613 (≈ 1250 µM) | 83 (≈ 169 µM) | 0.5 (≈ 1.02 µM) | 0.12 (≈ 0.245 µM) | 0.25 (≈ 0.51 µM) | 69 (≈ 141 µM) | 2.1 | 13 | 1 (≈ 2.04 µM)

Source: ChEMBL document CHEMBL4321865, “Discovery of Novel Inhibitors of LpxC Displaying Potent in Vitro Activity against Gram-Negative Bacteria” (J Med Chem, 2020)
